# From patent publication US20250034159A1, “INHIBITORS OF EPIDERMAL GROWTH FACTOR RECEPTOR” (ORIC Pharmaceuticals, Inc., priority 2021, published 2025)
# Where two headings read alike, the source gives them in different places.
# Legend:
# [1] = tested on: Ba/F3_EGFR WT cells; assay: Biological Activity Assay D: BaF3 cell proliferation assay, EGFR wild-type (BaF3 WT); type: cell-based; details: Ba/F3 EGFR, read-out: BaF3 WT IC50
# [2] = molecular target: recombinant human EGFR exon 19 deletion/C797S double mutant protein (Homo sapiens (Human), UniProt P00533, C797S/DEL746-750); assay: Biological Activity Assay C: biochemical assay against EGFR exon 19 deletion/C797S protein (EGFR d19/CS)
# Chain of recombinant human EGFR exon 19 deletion/C797S double mutant protein (P00533 other isoform, or with tags, fused parts or gaps C797S/del 1-668/del 746-750 limits assumed): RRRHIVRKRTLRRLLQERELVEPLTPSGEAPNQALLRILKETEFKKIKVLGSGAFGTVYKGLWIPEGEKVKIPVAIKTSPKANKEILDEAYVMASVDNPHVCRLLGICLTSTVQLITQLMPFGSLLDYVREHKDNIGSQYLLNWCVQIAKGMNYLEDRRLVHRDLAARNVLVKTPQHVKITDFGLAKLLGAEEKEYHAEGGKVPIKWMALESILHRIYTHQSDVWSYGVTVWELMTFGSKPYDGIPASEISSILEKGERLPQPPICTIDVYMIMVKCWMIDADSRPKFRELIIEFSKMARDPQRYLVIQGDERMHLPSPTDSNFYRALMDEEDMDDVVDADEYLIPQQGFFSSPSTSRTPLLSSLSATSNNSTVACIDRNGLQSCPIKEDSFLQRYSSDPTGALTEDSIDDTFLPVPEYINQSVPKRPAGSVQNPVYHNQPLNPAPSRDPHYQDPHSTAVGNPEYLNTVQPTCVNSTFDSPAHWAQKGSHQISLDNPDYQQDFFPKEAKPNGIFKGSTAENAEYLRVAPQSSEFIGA
# How it was run: (§1)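 Compounds were tested as 16-point serial dilutions (final DMSO 2.5%) with a Phosphosens peptide sensor/ATP working solution (40 uM/4 mM). The signal was read kinetically over 90 cycles at 120 s intervals. IC50s came from 4-parameter fits of per-well slopes.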
# [3] = molecular target: recombinant human EGFR L858R/C797S double mutant protein (Homo sapiens (Human), UniProt P00533, C797S/L858R); assay: Biological Activity Assay B: biochemical assay against EGFR L858R/C797S protein (EGFR LR/CS)
# Chain of recombinant human EGFR L858R/C797S double mutant protein (P00533 25-1210 C797S/L858R): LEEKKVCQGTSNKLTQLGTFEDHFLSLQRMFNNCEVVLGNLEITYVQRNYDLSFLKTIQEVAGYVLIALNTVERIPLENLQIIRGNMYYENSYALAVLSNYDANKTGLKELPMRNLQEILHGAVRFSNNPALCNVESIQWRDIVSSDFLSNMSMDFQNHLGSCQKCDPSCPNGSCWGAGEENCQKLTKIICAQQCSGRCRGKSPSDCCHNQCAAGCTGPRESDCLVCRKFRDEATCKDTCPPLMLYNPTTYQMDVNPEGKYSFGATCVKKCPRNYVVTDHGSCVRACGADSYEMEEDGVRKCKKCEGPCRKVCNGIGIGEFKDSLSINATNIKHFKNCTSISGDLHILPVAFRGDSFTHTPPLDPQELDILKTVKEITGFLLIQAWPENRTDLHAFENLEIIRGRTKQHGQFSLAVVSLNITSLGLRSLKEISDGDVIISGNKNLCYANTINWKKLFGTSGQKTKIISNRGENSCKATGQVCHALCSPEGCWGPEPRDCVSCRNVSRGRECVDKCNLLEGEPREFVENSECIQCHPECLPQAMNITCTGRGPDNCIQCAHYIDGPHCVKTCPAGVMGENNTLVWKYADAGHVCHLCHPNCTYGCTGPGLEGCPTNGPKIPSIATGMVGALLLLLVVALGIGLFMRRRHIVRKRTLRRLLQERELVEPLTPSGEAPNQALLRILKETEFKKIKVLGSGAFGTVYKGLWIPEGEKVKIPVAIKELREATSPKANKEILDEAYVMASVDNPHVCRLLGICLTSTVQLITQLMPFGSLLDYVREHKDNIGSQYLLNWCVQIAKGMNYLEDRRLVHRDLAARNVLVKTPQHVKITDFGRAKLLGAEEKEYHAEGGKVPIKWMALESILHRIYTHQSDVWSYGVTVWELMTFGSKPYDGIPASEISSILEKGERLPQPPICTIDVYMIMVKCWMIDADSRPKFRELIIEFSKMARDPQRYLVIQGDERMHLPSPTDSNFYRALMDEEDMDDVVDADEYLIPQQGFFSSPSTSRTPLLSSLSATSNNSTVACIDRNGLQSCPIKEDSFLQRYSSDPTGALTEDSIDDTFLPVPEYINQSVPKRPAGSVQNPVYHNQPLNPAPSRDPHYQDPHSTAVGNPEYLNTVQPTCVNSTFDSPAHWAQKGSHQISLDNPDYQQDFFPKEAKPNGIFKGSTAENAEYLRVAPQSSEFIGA
# How it was run: as §1
# [4] = tested on: BaF3_EGFR d19/CS cells; assay: Biological Activity Assay D: BaF3 cell proliferation assay, EGFR exon 19 deletion/C797S (BaF3 d19/CS); type: cell-based; details: Ba/F3 EGFR, read-out: BaF3 d19/CS IC50
# [5] = tested on: BaF3_EGFR LR/CS cells; assay: Biological Activity Assay D: BaF3 cell proliferation assay, EGFR L858R/C797S mutant (BaF3 LR/CS); type: cell-based; details: Ba/F3 EGFR, read-out: BaF3 LR/CS IC50
# [6] = Ba/F3_EGFR WT cells, ~72 hours, CellTiter-Glo
# [7] = BaF3_EGFR d19/CS cells, ~72 hours, CellTiter-Glo
# [8] = BaF3_EGFR LR/CS cells, ~72 hours, CellTiter-Glo
Compound,"IC50 [1, 6]",IC50 [2],IC50 [3],"IC50 [4, 7]","IC50 [5, 8]",IC50 ([1]; 72 h),IC50 ([4]; 72 h),IC50 ([5]; 72 h)
"CC(C)(C(N)=O)n1cc(-c2ncnc3oc(-c4ccccc4)cc23)c(-c2ccc(F)cc2)n1 [Example 77, 2-[3-(4-Fluorophenyl)-4-(6-phenylfuro[2,3-d]pyrimidin-4-yl)-1H-pyrazol-1-yl]-2-methylpropanamide]",5180 nM,1.61 nM,1.36 nM,72.2 nM,139 nM,–,–,–
"OCC(F)(F)Cn1cc(-c2ncnc3oc(-c4ccccc4)cc23)c(-c2ccc(F)cc2)n1 [Example 78, 2,2-Difluoro-3-[3-(4-fluorophenyl)-4-(6-phenylfuro[2,3-d]pyrimidin-4-yl)-1H-pyrazol-1-yl]propan-1-ol]",2730 nM,0.37 nM,0.48 nM,18.4 nM,23.2 nM,–,–,–
"CS(=O)(=O)Cn1cc(-c2ncnc3oc(-c4ccccc4)cc23)c(-c2ccc(F)cc2)n1 [Example 79, 4-{3-(4-fluorophenyl)-1-[(methanesulfonyl)methyl]-1H-pyrazol-4-yl}-6-phenylfuro[2,3-d]pyrimidine]",10200 nM,1.99 nM,2.64 nM,111 nM,116 nM,–,–,–
"Fc1ccc(-c2nn(C3COC3)nc2-c2ncnc3oc(-c4ccccc4)cc23)cc1 [Example 81, 4-[5-(4-fluorophenyl)-2-(oxetan-3-yl)-2H-1,2,3-triazol-4-yl]-6-phenylfuro[2,3-d]pyrimidine]",13500 nM,1.12 nM,2.58 nM,330 nM,241 nM,–,–,–
"CC(C)(O)CCn1nc(-c2ccc(F)cc2)c(-c2ncnc3oc(-c4ccccc4)cc23)n1 [Example 82, 4-[4-(4-fluorophenyl)-5-(6-phenylfuro[2,3-d]pyrimidin-4-yl)-2H-1,2,3-triazol-2-yl]-2-methylbutan-2-ol]",> 20000 nM,2.86 nM,4.33 nM,597 nM,392 nM,–,–,–
"O=S1(=O)CCCC(n2cc(-c3ncnc4oc(-c5ccccc5)cc34)c(-c3ccc(F)cc3)n2)C1 (stereo not shown) [Example 84, 3-[3-(4-fluorophenyl)-4-(6-phenylfuro[2,3-d]pyrimidin-4-yl)-1H-pyrazol-1-yl]-1λ6-thiane-1,1-dione]",> 20000 nM,10.8 nM,6.21 nM,779 nM,566 nM,–,–,–
"CC(=O)N1CC(n2cc(-c3ncnc4oc(-c5ccccc5)cc34)c(-c3ccc(F)cc3)n2)C1 [Example 86, 1-{3-[3-(4-fluorophenyl)-4-(6-phenylfuro[2,3-d]pyrimidin-4-yl)-1H-pyrazol-1-yl]azetidin-1-yl}ethan-1-one]",7380 nM,6.67 nM,6.25 nM,429 nM,390 nM,–,–,–
"CS(=O)(=O)CCn1nc(-c2ccc(F)cc2)c(-c2ncnc3oc(-c4ccccc4)cc23)n1 [Example 87, 4-{5-(4-fluorophenyl)-2-[2-(methanesulfonyl)ethyl]-2H-1,2,3-triazol-4-yl}-6-phenylfuro[2,3-d]pyrimidine]",2810 nM,1.34 nM,1.56 nM,196 nM,140 nM,–,–,–
"CC(C)(O)Cn1nc(-c2ccc(F)cc2)c(-c2ncnc3oc(-c4ccccc4)cc23)n1 [Example 88, 1-[4-(4-fluorophenyl)-5-(6-phenylfuro[2,3-d]pyrimidin-4-yl)-2H-1,2,3-triazol-2-yl]-2-methylpropan-2-ol]",3740 nM,0.64 nM,1.22 nM,238 nM,301 nM,–,–,–
"CC(=O)N1CCC(n2cc(-c3ncnc4oc(-c5ccccc5)cc34)c(-c3ccc(F)cc3)n2)C1 (stereo not shown) [Example 92, 1-{3-[3-(4-fluorophenyl)-4-(6-phenylfuro[2,3-d]pyrimidin-4-yl)-1H-pyrazol-1-yl]pyrrolidin-1-yl}ethan-1-one]",6220 nM,0.84 nM,0.95 nM,255 nM,231 nM,–,–,–
"COC(C)(C)Cn1cc(-c2ncnc3oc(-c4ccccc4)cc23)c(-c2ccc(F)cc2)n1 [Example 93, 4-[3-(4-fluorophenyl)-1-(2-methoxy-2-methylpropyl)-1H-pyrazol-4-yl]-6-phenylfuro[2,3-d]pyrimidine]",4290 nM,0.73 nM,0.91 nM,450 nM,184 nM,–,–,–
"OCCn1cc(-c2ncnc3oc(-c4ccccc4)cc23)c(-c2ccc(F)cc2)n1 [Example 94, 2-[3-(4-Fluorophenyl)-4-(6-phenylfuro[2,3-d]pyrimidin-4-yl)-1H-pyrazol-1-yl]ethan-1-ol]",–,0.11 nM,0.17 nM,–,–,1120 nM,27.4 nM,22.4 nM
"CC(C)(O)Cn1cc(-c2ncnc3oc(-c4ccccc4)cc23)c(-c2cccc(F)c2)n1 [Example 95, 1-[3-(3-Fluorophenyl)-4-(6-phenylfuro[2,3-d]pyrimidin-4-yl)-1H-pyrazol-1-yl]-2-methylpropan-2-ol]",2090 nM,0.32 nM,0.75 nM,95.2 nM,116 nM,–,–,–
"O=S1(=O)CC(Cn2cc(-c3ncnc4oc(-c5ccccc5)cc34)c(-c3ccc(F)cc3)n2)C1 [Example 98, 3-{[3-(4-fluorophenyl)-4-(6-phenylfuro[2,3-d]pyrimidin-4-yl)-1H-pyrazol-1-yl]methyl}-1λ6-thietane-1,1-dione]",1860 nM,1.27 nM,0.82 nM,212 nM,161 nM,–,–,–
"CS(=O)(=O)NCCn1cc(-c2ncnc3oc(-c4ccccc4)cc23)c(-c2ccc(F)cc2)n1 [Example 103, N-{2-[3-(4-Fluorophenyl)-4-(6-phenylfuro[2,3-d]pyrimidin-4-yl)-1H-pyrazol-1-yl]ethyl}methanesulfonamide]",229 nM,0.13 nM,0.16 nM,17.5 nM,8.35 nM,–,–,–
"O=S1(=O)CC(n2nc(-c3ccc(F)cc3)c(-c3ncnc4oc(-c5ccccc5)cc34)n2)C1 [Example 104, 3-[4-(4-Fluorophenyl)-5-(6-phenylfuro[2,3-d]pyrimidin-4-yl)-2H-1,2,3-triazol-2-yl]-1λ6-thietane-1,1-dione]",10600 nM,0.46 nM,1.67 nM,98 nM,174 nM,–,–,–
"O=S1(=O)CCC(Cn2cc(-c3ncnc4oc(-c5ccccc5)cc34)c(-c3ccc(F)cc3)n2)CC1 [Example 105, 4-{[3-(4-fluorophenyl)-4-(6-phenylfuro[2,3-d]pyrimidin-4-yl)-1H-pyrazol-1-yl]methyl}-1λ6-thiane-1,1-dione]",1700 nM,1.69 nM,0.75 nM,152 nM,136 nM,–,–,–
"NC(=O)Cn1cc(-c2ncnc3oc(-c4ccccc4)cc23)c(-c2ccc(F)cc2)n1 [Example 106, 2-[3-(4-Fluorophenyl)-4-(6-phenylfuro[2,3-d]pyrimidin-4-yl)-1H-pyrazol-1-yl]acetamide]",1020 nM,0.38 nM,0.45 nM,64.7 nM,55.7 nM,–,–,–
"Fc1ccc(-c2nn(C(F)F)cc2-c2ncnc3oc(-c4ccccc4)cc23)cc1 [Example 107, 4-[1-(difluoromethyl)-3-(4-fluorophenyl)-1H-pyrazol-4-yl]-6-phenylfuro[2,3-d]pyrimidine]",3370 nM,6.94 nM,9.83 nM,314 nM,610 nM,–,–,–
"CC(=O)N1CC=C(c2cc3c(-c4cn(C5CS(=O)(=O)C5)nc4-c4ccc(F)cc4)ncnc3o2)CC1 [Example 108, 3-{4-[6-(1-Acetyl-1,2,3,6-tetrahydropyridin-4-yl)furo[2,3-d]pyrimidin-4-yl]-3-(4-fluorophenyl)-1H-pyrazol-1-yl}-1λ6-thietane-1,1-dione]",1520 nM,0.45 nM,1.59 nM,105 nM,130 nM,–,–,–
"CC(C)(O)Cn1cc(-c2ncnc3oc(-c4ccccc4)cc23)c(-c2ccccc2F)n1 [Example 109, 1-[3-(2-Fluorophenyl)-4-(6-phenylfuro[2,3-d]pyrimidin-4-yl)-1H-pyrazol-1-yl]-2-methylpropan-2-ol]",667 nM,0.18 nM,0.4 nM,23.6 nM,15.7 nM,–,–,–
"CC(C)(O)Cn1cc(-c2ncnc3oc(-c4ccccc4)cc23)c(-c2ccccc2)n1 [Example 110, 2-Methyl-1-[3-phenyl-4-(6-phenylfuro[2,3-d]pyrimidin-4-yl)-1H-pyrazol-1-yl]propan-2-ol]",1380 nM,0.33 nM,0.69 nM,83.1 nM,68.7 nM,–,–,–
"NS(=O)(=O)CCn1cc(-c2ncnc3oc(-c4ccccc4)cc23)c(-c2ccc(F)cc2)n1 [Example 111, 2-[3-(4-Fluorophenyl)-4-(6-phenylfuro[2,3-d]pyrimidin-4-yl)-1H-pyrazol-1-yl]ethane-1-sulfonamide]",1140 nM,0.41 nM,0.45 nM,114 nM,53.7 nM,–,–,–
